Reference: patent publication US11066398B2, “Small molecule c-Myc inhibitors” (THE SCRIPPS RESEARCH INSTITUTE, priority 2013, dated 2021)
Values after ≈ are worked out from the molar mass of the structure shown. “Also recorded” adds a separate entry of the source. Read-outs that look alike come from different tables or passages of the source.

Tests used:
[1] = biological target: ATG-Myc (Homo sapiens, UniProt P01106); test: Myc-induced oncogenic transformation (focus assay) in chicken embryo fibroblasts; type: cell-based
Chain of ATG-Myc (P01106 whole entry): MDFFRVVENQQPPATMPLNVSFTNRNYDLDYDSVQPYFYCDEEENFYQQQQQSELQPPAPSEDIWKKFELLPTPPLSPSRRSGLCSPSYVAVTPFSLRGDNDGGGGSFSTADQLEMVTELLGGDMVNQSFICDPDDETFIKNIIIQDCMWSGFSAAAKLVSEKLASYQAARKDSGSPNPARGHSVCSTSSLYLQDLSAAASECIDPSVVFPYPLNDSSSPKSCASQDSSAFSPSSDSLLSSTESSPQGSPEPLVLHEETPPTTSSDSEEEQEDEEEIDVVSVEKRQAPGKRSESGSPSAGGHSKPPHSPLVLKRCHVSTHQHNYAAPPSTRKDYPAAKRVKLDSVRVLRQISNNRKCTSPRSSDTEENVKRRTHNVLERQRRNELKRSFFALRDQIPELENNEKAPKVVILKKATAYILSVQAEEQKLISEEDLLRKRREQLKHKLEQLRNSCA

[2] = Solubility in water; type: physicochemical
[3] = tested on: NDRG1 (N-myc downregulated gene 1); test: NDRG1 expression by Western blot in MDA-MB-231 and NCI-H460 cells; type: cell-based, human; settings: 20 μM, 24 hrs
Method: (§1) NCI-H460 cells were grown in RPMI medium, and MDA-MB-231 cells were grown in DMEM medium; both media contained 10% FBS. KJ-Pyr-9 and 10058-F4 were added at a concentration of 20 μM and the cells were treated for 24 hrs before Western blot analysis.
(§2) Interference with Myc transcriptional activity of Myc affects the transcription of a large number of target genes and can function as activator or repressor. […] NDRG1 is a direct transcriptional target of Myc that acts as a repressor of this gene. For comparison, we used the previously identified inhibitor of MYC-MAX dimerization that binds to the disordered monomer and prevents Myc from adopting a conformation needed for the interaction with MAX (Wang et al., Mol. Cancer Ther. 6:2399-2408, 2007; and Huang et al., Exp. Hematol. 34:1480-1489, 2006). Both KJ-Pyr-9 and 10058-F4 cause an increase of NDRG1 expression (FIG. 4).

[4] = tested on: MYC; test: Myc levels by Western blot in MDA-MB-231 and NCI-H460 cells; type: cell-based, human; settings: 20 μM, 24 hrs
Method: as §1, §2

[5] = Pharmacokinetics and tolerability in mice; type: in vivo, mouse; settings: for concentration at 4 h: ip, mice, 10 mg/kg intraperitoneally
Method: (§3) In vivo activity of KJ-Pyr-9: Previous Myc inhibitors have not been effective in animal model studies. These failures resulted from insufficient affinity toward Myc and poor pharmacokinetic properties.
(§4) Pharmacokinetics. Three mice were injected with 10 mg/kg KJ-Pyr-9 dissolved in 10:10:80 Tween-80:DMSO:5% Dextrose/water intraperitoneally. At 4 hours concentrations of KJ-Pyr-9 in the plasma and in the brain were 3.5 and 12.4 μM respectively. Rats were dosed with 1 mg/kg i.v.; elimination half lives in plasma were approximately 1.84 h (rats).

[6] = Pharmacokinetics in rats; type: in vivo, rat; settings: 1 mg/kg i.v.
Method: as §3, §4

[7] = tested on: xenograft of MDA-MB-231 cells; test: MDA-MB-231 xenograft in nude mice; type: in vivo, mouse; settings: 10 mg/kg daily i.p.
Method: When tumors reached a volume of 100 mm^3 half of the mice were given daily i.p. injections of 10 mg/kg KJ-PYR-9 and the other half received vehicle only. Tumor growth was followed for 31 days. (A) Tumor volumes of treated and untreated animals. (B) Tumor weights of treated and untreated animals. (C) Time course of tumor volumes.
To test the in vivo effectiveness of KJ-Pyr-9, nude mice received a xenograft of MDA-MB-231 cells suspended in Matrigel and injected subcutaneously into the left and right flanks. When the tumors had reached an average volume of 100 mm^3, mice were treated daily with 10 mg/kg KJ-Pyr-9 or vehicle control by intraperitoneal injection for 31 days. […] At the conclusion of the experiment the tumors were extracted and weighed. […] Treatment with KJ-Pyr-9 had no effect on the body weight of the animals.
Xenograft experiments. […] Tumor volume and mouse weight were measured daily. […] Tumors were weighed.
Statistical methods. Tumor volumes were calculated using (length)×(width)^2. Tumor volumes were evaluated using Efron's Bootstrap (ISBN:0412042312) procedures as implemented in the R statistics program (Wu and Houghton, J. Biopharma. Stat. 19:755-762, 2009). Mean volumes and 90% confidence intervals were determined using bootstrap resampling with 10^6 randomizations and graphed using the ggplot2 package (ISBN:0387981403). P-values were determined using the resampling permutation method with 10^6 randomizations.

[8] = biological target: N-Myc (Homo sapiens, UniProt P04198); settings: CEF, dose response
Chain of N-Myc (P04198 whole entry, species assumed): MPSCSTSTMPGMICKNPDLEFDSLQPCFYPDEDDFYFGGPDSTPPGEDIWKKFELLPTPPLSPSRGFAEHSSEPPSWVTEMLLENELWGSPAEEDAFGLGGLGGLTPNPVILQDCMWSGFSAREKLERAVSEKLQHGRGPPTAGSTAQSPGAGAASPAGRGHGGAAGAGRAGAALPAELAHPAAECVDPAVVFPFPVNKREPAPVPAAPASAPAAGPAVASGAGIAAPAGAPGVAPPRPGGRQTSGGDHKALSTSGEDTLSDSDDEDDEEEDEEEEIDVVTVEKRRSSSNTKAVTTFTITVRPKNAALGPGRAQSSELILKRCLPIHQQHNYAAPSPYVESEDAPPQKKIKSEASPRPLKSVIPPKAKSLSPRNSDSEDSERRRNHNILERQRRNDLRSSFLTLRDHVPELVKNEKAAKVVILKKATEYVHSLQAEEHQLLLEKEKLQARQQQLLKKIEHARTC
Method: (§5) Data from a representative experiment conducted with the cells derived from a single chicken embryo.
(§6) The assay of oncogene-induced cellular transformation in CEF was also used to determine selectivity of KJ-Pyr-9 for Myc.
(§7) Assay for oncogenic transformation in cell culture. […] CEF were infected with a series of ten-fold dilutions of the indicated virus. Compounds were added to the nutrient agar overlay. Additional compound-containing overlay was added every 3 days until experimental end point.

[9] = biological target: v-Src (Rous sarcoma virus subgroup A, UniProt P00524); settings: CEF, dose response
Chain of v-Src (P00524 whole entry): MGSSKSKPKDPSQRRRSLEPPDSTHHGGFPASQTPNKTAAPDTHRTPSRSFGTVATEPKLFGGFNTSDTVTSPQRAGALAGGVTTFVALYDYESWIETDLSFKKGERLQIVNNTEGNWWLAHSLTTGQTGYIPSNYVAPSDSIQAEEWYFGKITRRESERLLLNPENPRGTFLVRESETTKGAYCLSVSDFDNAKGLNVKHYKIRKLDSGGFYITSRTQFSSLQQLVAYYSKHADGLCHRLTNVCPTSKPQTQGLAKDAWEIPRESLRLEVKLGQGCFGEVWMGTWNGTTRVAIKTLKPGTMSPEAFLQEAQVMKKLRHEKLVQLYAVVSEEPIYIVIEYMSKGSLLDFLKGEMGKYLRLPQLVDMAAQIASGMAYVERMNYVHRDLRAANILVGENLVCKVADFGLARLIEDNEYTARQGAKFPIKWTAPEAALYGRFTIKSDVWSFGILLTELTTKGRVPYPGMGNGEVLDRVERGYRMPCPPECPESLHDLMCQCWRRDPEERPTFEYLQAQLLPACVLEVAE
Method: as §5, §6, §7

[10] = biological target: v-Jun (Avian sarcoma virus, UniProt P05411); settings: CEF, dose response
Chain of v-Jun (P05411 whole entry): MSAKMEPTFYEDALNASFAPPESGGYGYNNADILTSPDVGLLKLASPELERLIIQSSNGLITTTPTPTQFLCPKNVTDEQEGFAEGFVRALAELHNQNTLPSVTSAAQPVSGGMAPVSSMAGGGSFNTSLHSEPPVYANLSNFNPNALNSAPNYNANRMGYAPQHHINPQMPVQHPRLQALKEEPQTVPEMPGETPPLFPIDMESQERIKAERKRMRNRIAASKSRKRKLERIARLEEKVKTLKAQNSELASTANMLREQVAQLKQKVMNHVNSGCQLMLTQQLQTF
Method: as §5, §6, §7

[11] = biological target: MYC^332-439 with MAX (Homo sapiens, UniProt P01106); settings: HEK293 cells, 20 μM, compared to PKA RII:RII control biosensor
Chain of MYC^332-439 with MAX (P01106 347-454): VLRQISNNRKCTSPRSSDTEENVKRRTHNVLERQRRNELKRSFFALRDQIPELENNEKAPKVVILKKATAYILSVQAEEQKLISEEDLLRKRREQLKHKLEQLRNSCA
Method: (§8) We used an efficient and sensitive PCA biosensor which is based on the PPI involving the full length MAX protein and the C-terminal MAX-interaction-domain in MYC (MYC^332-439).
(§9) HEK293 cells were grown in Dulbecco's Modified Eagle's Medium (DMEM) supplemented with 10% fetal bovine serum (FBS). The indicated Rluc-PCA expression constructs were transiently overexpressed in a 24-well plate format. […] Following treatment, the growth medium was exchanged and cells were resuspended in phosphate buffered saline (PBS). Cell suspensions were transferred to white walled 96-well plates and were subjected to bioluminescence analysis using the LMax II 384 luminometer (Molecular Devices). Rluc bioluminescence signals were integrated for 10 sec following addition of the Rluc substrate benzyl-coelenterazine to intact cells (5 μM; Nanolight).

[12] = biological target: MAX homodimerization (Homo sapiens, UniProt P61244); settings: HEK293 cells, 20 μM
Chain of MAX homodimerization (P61244 whole entry): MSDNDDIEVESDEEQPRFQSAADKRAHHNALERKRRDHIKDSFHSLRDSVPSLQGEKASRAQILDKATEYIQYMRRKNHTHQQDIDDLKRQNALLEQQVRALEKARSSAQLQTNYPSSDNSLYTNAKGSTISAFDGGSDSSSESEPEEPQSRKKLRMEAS
Method: as §8, §9

[13] = tested on: NCI-H460; settings: NCI-H460, 72 hrs, 2.5% FBS
[14] = tested on: MDA-MB-231; settings: MDA-MB-231, 216 hrs, 2.5% FBS
[15] = tested on: SUM-159PT; settings: 120 hrs, 2.5% FBS
[16] = tested on: Burkitt's lymphoma cell lines (Akata, Ramos, Raji); settings: 72 hours
Method: (A) Akata, (B) Ramos, (C) Raji. 10^3 cells were seeded per well on 96-well plates and were treated with the indicated concentrations of KJ-Pyr-9 for 72 hours. Cell proliferation was determined by resazurin fluorescence.

[17] = tested on: normal quail embryo fibroblasts (QEF); settings: 25 or 50 μM, 24 hrs
[18] = tested on: QEF oncogenically transformed by the v-jun oncogene (VJ); settings: 25 or 50 μM, 24 hrs
[19] = tested on: QEF transformed by methylcholanthrene (QT6); settings: 25 or 50 μM, 24 hrs
[20] = tested on: cells transformed by v-myc (Q8, QEF/MC29)
[21] = tested on: K-562; settings: K-562, 25 or 50 μM, 24 hrs
[22] = tested on: MOLT-4; settings: MOLT-4, 25 or 50 μM, 24 hrs
[23] = tested on: HL-60; settings: HL-60, 25 or 50 μM, 24 hrs
[24] = tested on: human fibroblasts (hFB); settings: 25 or 50 μM, 24 hrs
[25] = tested on: SW-480; settings: SW-480, 25 or 50 μM, 24 hrs
[26] = tested on: NDRG1; settings: 10 mg/kg daily i.p., Western blot of frozen tumor samples
Method: In order to determine drug activity in tumor cells, protein lysates were prepared from frozen tumor samples and analyzed by Western blot.
Xenograft experiments. […] Cells were suspended in high concentration Matrigel (BD Biosciences) prior to injection. Xenograft tumors were allowed to grow until the average volume of the tumors reached 100 mm^3 as measured by external calipers. At this point, the mice were divided into two groups. […] Tumor volume and mouse weight were measured daily. Vehicle used in all cases was 10:10:80 DMSO:Tween-80:5% dextrose in water. The mice were treated for a period of 31 days. At the end of the experiment, the mice were euthanized and tumors excised. Tumors were weighed. Samples of each tumor were fixed in formalin for histology and frozen for Western blotting. All vertebrate experiments were conducted with the approval of the TSRI IACUC.

## NC(=O)c1ccc(-c2cc(-c3ccc([N+](=O)[O-])cc3)nc(-c3ccco3)c2)cc1 [CG-RS-44, 4-(2-(furan-2-yl)-6-(4-nitrophenyl)pyridin-4-yl)benzamide]
[1]; 0-20 μM (0, 1.25, 2.5, 5, 10, and 20 μM)
  Dose dependence of inhibition of ATG-Myc focus formation: dose-dependent inhibition
[1]; CEF assay
  Comparison of IC50 values for ATG-Myc focus formation: better than all analogs tested
[1]; CEF focus assay, concentration of 10 μM
  Inhibition of ATG-Myc focus formation: no foci formation
[1]; CEF, ATG-Myc, listed as KJ-Pyr-9
  Inhibition of Myc oncogenic activity in CEF transformation assay: effective; also recorded: strongly inhibited
[2]
  solubility: 12.5 µM (≈ 4.82 µg/mL)
[3]
  NDRG1 expression: increase
[4]
  Effect on Myc levels: only a slight effect
[5]; dose of 10 mg/kg
  Acute toxicity: no signs of acute toxicity
[5]; mouse, brain, read-out: Concentration in the brain
  concentration at 4 h: 12.4 µM
[5]; mouse, in vivo
  Blood brain barrier penetration: crossed the blood brain barrier
  Brain versus blood concentration: higher concentrations in brain tissue than in the blood
[5]; mouse, plasma, read-out: Concentration in the plasma
  concentration at 4 h: 3.5 µM
[6]
  Elimination half life in plasma: approximately 1.84 h
[7]; 31 days
  Body weight of the animals: no effect
[7]; by day 31
  Tumor volume: had not increased significantly
[7]; end of experiment (31 days)
  Tumor weight: halt tumor growth
[7]; nude mice
  Onset of inhibition of tumor growth: noted after eight days of treatment
[8]
  Inhibition of oncogenic activity of N-Myc: strongly inhibited
[9]
  Inhibition of oncogenic transformation by v-Src: unaffected
[10]
  Inhibition of oncogenic transformation by v-Jun: inhibited at significantly higher concentrations
[11]
  Complex formation of MYC^332-439 with MAX (Rluc PCA): selectively reduced complex formation
[12]
  MAX homodimerization (Rluc PCA): interfered with MAX homodimerization, albeit to a lesser degree
[13]
  Cell proliferation: inhibited
[14]
  Cell proliferation: inhibited
[15]
  Cell proliferation: inhibited
[16]
  Cell proliferation: very sensitive
[17]
  Cell growth: only slightly impaired in their growth
[18]
  Cell growth: only slightly impaired in their growth
[19]
  Cell growth: only slightly impaired in their growth
[20]
  Cell growth: significantly more affected
[21]
  Cell proliferation: strongly inhibited
[22]
  Cell proliferation: strongly inhibited
[23]
  Cell proliferation: strongly inhibited
[24]
  Cell proliferation: not affected
[25]
  Cell proliferation: not affected
[26]
  Expression of NDRG1 in tumor lysates: significantly enhanced
